Measured values published in patent publication US20260262643A1, “HERBICIDAL BENZOXAZINES” (FMC CORPORATION, priority 2022, published 2026).

Key:
corn [1] = test: Test A preemergence; assay type: in vivo, Zea mays
In short: (§1)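 Loam/sand soil; pre-em directed soil spray at planting, post-em spray at 1–2 leaf (2–10 cm). Compound in non-phytotoxic solvent + surfactant. Greenhouse 10 d; visual injury vs untreated, 0 = no effect, 100 = complete control.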

galium = test: Test A postemergence; assay type: in vivo, Galium aparine
In short: as §1

rice = test: Test B flooded paddy test; assay type: in vivo, Oryza sativa; details: 250 g ai/ha, Flood, 13 days, 0 to 100 scale (0 no effect, 100 complete control)
In short: (§2)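 Compound is introduced into paddy water covering soil by 3 cm, treating plants that have reached two leaves. Pots are kept flooded at that depth under greenhouse conditions. Assessment at 13 days gives a 0–100 visual control score.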

corn [2] = test: Test A postemergence; assay type: in vivo, Zea mays
In short: as §1

wheat [3] = test: Test A postemergence; assay type: in vivo, Triticum aestivum
In short: as §1

foxtail, giant [4] = test: Test A preemergence; assay type: in vivo, Setaria faberi
In short: as §1

kochia [5] = test: Test A postemergence; assay type: in vivo, Bassia scoparia
In short: as §1

ragweed [6] = test: Test A preemergence; assay type: in vivo, Ambrosia artemisiifolia
In short: as §1

goosegrass [7] = test: Test A preemergence; assay type: in vivo, Eleusine indica
In short: as §1

blackgrass [8] = test: Test A postemergence; assay type: in vivo, Alopecurus myosuroides
In short: as §1

ryegrass, Italian [9] = test: Test A postemergence; assay type: in vivo, Lolium multiflorum
In short: as §1

soybean [10] = test: Test A preemergence; assay type: in vivo, Glycine max
In short: as §1

soybean [11] = test: Test A postemergence; assay type: in vivo, Glycine max
In short: as §1

goosegrass [12] = test: Test A postemergence; assay type: in vivo, Eleusine indica
In short: as §1

pigweed, palmer [13] = test: Test A preemergence; assay type: in vivo, Amaranthus palmeri
In short: as §1

ryegrass, Italian [14] = test: Test A preemergence; assay type: in vivo, Lolium multiflorum
In short: as §1

ragweed [15] = test: Test A postemergence; assay type: in vivo, Ambrosia artemisiifolia
In short: as §1

pigweed, palmer [16] = test: Test A postemergence; assay type: in vivo, Amaranthus palmeri
In short: as §1

barnyardgrass = test: Test B flooded paddy test; assay type: in vivo, Echinochloa crus-galli; details: 250 g ai/ha, Flood, 13 days, 0 to 100 scale (0 no effect, 100 complete control)
In short: as §2

foxtail, giant [17] = test: Test A postemergence; assay type: in vivo, Setaria faberi
In short: as §1

wheat [18] = test: Test A preemergence; assay type: in vivo, Triticum aestivum
In short: as §1

kochia [19] = test: Test A preemergence; assay type: in vivo, Bassia scoparia
In short: as §1

sedge, umbrella = test: Test B flooded paddy test; assay type: in vivo, Cyperus difformis; details: 250 g ai/ha, Flood, 13 days, 0 to 100 scale (0 no effect, 100 complete control)
In short: as §2

horseweed = test: Test A postemergence; assay type: in vivo, Erigeron canadensis
In short: as §1

oat, wild [20] = test: Test A preemergence; assay type: in vivo, Avena fatua
In short: as §1

oat, wild [21] = test: Test A postemergence; assay type: in vivo, Avena fatua
In short: as §1

blackgrass [22] = test: Test A preemergence; assay type: in vivo, Alopecurus myosuroides
In short: as §1

ducksalad = test: Test B flooded paddy test; assay type: in vivo, Heteranthera limosa; details: 250 g ai/ha, Flood, 13 days, 0 to 100 scale (0 no effect, 100 complete control)
In short: as §2

[23] = 125 g ai/ha, visual injury after 10 days, 0 to 100 scale, 0 is no effect, 100 is complete control
[24] = 500 g ai/ha, 0 to 100 scale (0 no effect, 100 complete control), 10 days
[25] = 125 g ai/ha, postemergence, 10 days, visual injury, 0 to 100 scale (0 no effect, 100 complete control)
[26] = 500 g ai/ha, postemergence, 10 days, visual injury, 0 to 100 scale (0 no effect, 100 complete control)
[27] = 500 g ai/ha, Postemergence, 0 to 100 scale

Cc1ccc(-n2cnc(C3CC3)n2)cc1C(=O)N1C[C@H](C)Oc2c(Cl)cccc21 [Compound 67]
60: Plant response rating, Corn (corn [2]; [25]) | Plant response rating, Corn (corn [2]; [26]) | Plant response rating, Oat, Wild (oat, wild [21]; [26])
40: Plant response rating, Corn (corn [1]; [23])
10: Plant response rating, Wheat (wheat [18]; [23])
90: Plant response rating, Blackgrass (blackgrass [8]; [27]) | Plant response rating, Pigweed, Palmer (pigweed, palmer [16]; [26]) | Plant response rating, Foxtail, Giant (foxtail, giant [17]; [26]) | Plant response rating, Oat, Wild (oat, wild [20]; [24]) | Plant response rating, Blackgrass (blackgrass [22]; [24])
50: Plant response rating, Corn (corn [1]; [24]) | Plant response rating, Soybean (soybean [10]; [23]) | Plant response rating, Foxtail, Giant (foxtail, giant [17]; [25])
80: Plant response rating, Kochia (kochia [19]; [23]) | Plant response rating, Blackgrass (blackgrass [22]; [23])
70: Plant response rating, Kochia (kochia [5]; [25]) | Plant response rating, Blackgrass (blackgrass [8]; [25]) | Plant response rating, Soybean (soybean [10]; [24]) | Plant response rating, Goosegrass (goosegrass [12]; [26]) | Plant response rating, Ragweed (ragweed [15]; [26])
75: Plant response rating, Sedge, Umbrella (sedge, umbrella)
30: Plant response rating, Wheat (wheat [3]; [26]) | Plant response rating, Ragweed (ragweed [6]; [24]) | Plant response rating, Goosegrass (goosegrass [12]; [25]) | Plant response rating, Wheat (wheat [18]; [24]) | Plant response rating, Horseweed (horseweed; [25]) | Plant response rating, Horseweed (horseweed; [26]) | Plant response rating, Oat, Wild (oat, wild [20]; [23]) | Plant response rating, Ducksalad (ducksalad)
0: Plant response rating, Rice (rice) | Plant response rating, Ragweed (ragweed [6]; [23]) | Plant response rating, Barnyardgrass (barnyardgrass)
100: Plant response rating, Galium (galium; [25]) | Plant response rating, Galium (galium; [26]) | Plant response rating, Foxtail, Giant (foxtail, giant [4]; [23]) | Plant response rating, Foxtail, Giant (foxtail, giant [4]; [24]) | Plant response rating, Kochia (kochia [5]; [26]) | Plant response rating, Goosegrass (goosegrass [7]; [23]) | Plant response rating, Goosegrass (goosegrass [7]; [24]) | Plant response rating, Ryegrass, Italian (ryegrass, Italian [9]; [26]) | Plant response rating, Soybean (soybean [11]; [26]) | Plant response rating, Pigweed, Palmer (pigweed, palmer [13]; [23]) | Plant response rating, Pigweed, Palmer (pigweed, palmer [13]; [24]) | Plant response rating, Ryegrass, Italian (ryegrass, Italian [14]; [23]) | Plant response rating, Ryegrass, Italian (ryegrass, Italian [14]; [24]) | Plant response rating, Kochia (kochia [19]; [24])

Cc1cccc2c1O[C@@H](C)CN2C(=O)c1ccc(F)c(-n2cncn2)c1 [Compound 52]
30: Plant response rating, Galium (galium; [25]) | Plant response rating, Wheat (wheat [3]; [25]) | Plant response rating, Soybean (soybean [10]; [23]) | Plant response rating, Ragweed (ragweed [15]; [27]) | Plant response rating, Pigweed, Palmer (pigweed, palmer [16]; [25]) | Plant response rating, Wheat (wheat [18]; [23])
60: Plant response rating, Wheat (wheat [3]; [27]) | Plant response rating, Kochia (kochia [5]; [27]) | Plant response rating, Blackgrass (blackgrass [8]; [27]) | Plant response rating, Goosegrass (goosegrass [12]; [27]) | Plant response rating, Pigweed, Palmer (pigweed, palmer [16]; [27]) | Plant response rating, Foxtail, Giant (foxtail, giant [17]; [25]) | Plant response rating, Wheat (wheat [18]; [24]) | Plant response rating, Blackgrass (blackgrass [22]; [24])
0: Plant response rating, Ragweed (ragweed [6]; [23]) | Plant response rating, Pigweed, Palmer (pigweed, palmer [13]; [23]) | Plant response rating, Ragweed (ragweed [15]; [25]) | Plant response rating, Kochia (kochia [19]; [23]) | Plant response rating, Horseweed (horseweed; [25]) | Plant response rating, Horseweed (horseweed; [27])
75: Plant response rating, Sedge, Umbrella (sedge, umbrella)
90: Plant response rating, Galium (galium; [27]) | Plant response rating, Foxtail, Giant (foxtail, giant [4]; [23]) | Plant response rating, Goosegrass (goosegrass [7]; [23]) | Plant response rating, Soybean (soybean [10]; [24]) | Plant response rating, Foxtail, Giant (foxtail, giant [17]; [27])
80: Plant response rating, Ryegrass, Italian (ryegrass, Italian [9]; [27]) | Plant response rating, Ryegrass, Italian (ryegrass, Italian [14]; [23]) | Plant response rating, Oat, Wild (oat, wild [20]; [24]) | Plant response rating, Oat, Wild (oat, wild [21]; [27])
25: Plant response rating, Barnyardgrass (barnyardgrass)
10: Plant response rating, Rice (rice) | Plant response rating, Kochia (kochia [5]; [25])
20: Plant response rating, Corn (corn [1]; [23]) | Plant response rating, Oat, Wild (oat, wild [21]; [25])
50: Plant response rating, Blackgrass (blackgrass [8]; [25]) | Plant response rating, Goosegrass (goosegrass [12]; [25]) | Plant response rating, Blackgrass (blackgrass [22]; [23]) | Plant response rating, Ducksalad (ducksalad)
70: Plant response rating, Corn (corn [2]; [27]) | Plant response rating, Ragweed (ragweed [6]; [24]) | Plant response rating, Kochia (kochia [19]; [24])
40: Plant response rating, Corn (corn [1]; [24]) | Plant response rating, Corn (corn [2]; [25]) | Plant response rating, Ryegrass, Italian (ryegrass, Italian [9]; [25]) | Plant response rating, Oat, Wild (oat, wild [20]; [23])
100: Plant response rating, Foxtail, Giant (foxtail, giant [4]; [24]) | Plant response rating, Goosegrass (goosegrass [7]; [24]) | Plant response rating, Soybean (soybean [11]; [25]) | Plant response rating, Soybean (soybean [11]; [27]) | Plant response rating, Pigweed, Palmer (pigweed, palmer [13]; [24]) | Plant response rating, Ryegrass, Italian (ryegrass, Italian [14]; [24])
